Reference: paper PMC7581941, “Schedule-Dependent Synergy Between the Histone Deacetylase Inhibitor Belinostat and the Dihydrofolate Reductase Inhibitor Pralatrexate in T-and B-cell Lymphoma Cells in vitro” (Frontiers in Cell and Developmental Biology, 2020)
Where “and” joins values, the source holds several entries; their conditions need not be identical. Identical values can stand only once. Like-named read-outs stand apart in the source and are kept apart here.

Assays:
RFC = target: T1, RFC (Homo sapiens, UniProt P41440); experiment: RFC competition assay: inhibition of [3H]-l-LV uptake in CCRF-CEM/7A cells (RFC+++); assay type: cell-based
T1 construct: CEM-7A cells overexpress the RFC 30-fold over wild-type CCRF-CEM cells; endogenous in cells; host or cells: CCRF-CEM/7A (CEM-7A) cells
T1 sequence (P41440 1-591): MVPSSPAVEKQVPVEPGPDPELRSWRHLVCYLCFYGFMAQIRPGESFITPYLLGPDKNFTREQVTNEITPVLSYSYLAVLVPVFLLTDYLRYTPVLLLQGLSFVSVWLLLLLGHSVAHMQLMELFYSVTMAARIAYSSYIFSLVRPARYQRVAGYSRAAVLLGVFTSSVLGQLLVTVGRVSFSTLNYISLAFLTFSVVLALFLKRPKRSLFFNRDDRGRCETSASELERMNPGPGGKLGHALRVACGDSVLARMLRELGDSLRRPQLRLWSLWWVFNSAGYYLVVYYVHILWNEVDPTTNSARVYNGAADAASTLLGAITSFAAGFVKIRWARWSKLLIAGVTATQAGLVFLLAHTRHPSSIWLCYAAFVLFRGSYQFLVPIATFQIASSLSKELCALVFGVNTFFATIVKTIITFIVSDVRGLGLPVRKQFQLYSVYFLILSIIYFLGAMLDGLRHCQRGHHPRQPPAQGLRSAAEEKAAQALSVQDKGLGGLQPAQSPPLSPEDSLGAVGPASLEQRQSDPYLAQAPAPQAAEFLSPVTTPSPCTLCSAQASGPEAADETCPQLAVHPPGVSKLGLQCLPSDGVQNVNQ
Procedure: For FRα and FRβ, we used an intact cell binding assay for competitive binding with KB cells and CHO-FRβ cells, respectively. […] For RFC we used a competition assay with 5 μM [^3H]-l-LV in CCRF-CEM/7A cells (RFC+++) for 2 min at 37°C.
Transport was determined by evaluation of the uptake of 5 μM [^3H]-l-LV for 2 min in CCRF-CEM-7A cells, which overexpress RFC. […] Values are from one representative experiment in triplicate; performed three times. Error bars represent SEM, when not visible, they are within the size of the marker.

PCFT = target: T2, PCFT (Homo sapiens, UniProt Q96NT5); experiment: PCFT competition assay: inhibition of [3H]-l-LV influx in CHO-cells lacking RFC and transfected with PCFT; assay type: cell-based
T2 construct: expressed in transfected cells; host or cells: CHO cells lacking RFC
T2 sequence (Q96NT5 1-459): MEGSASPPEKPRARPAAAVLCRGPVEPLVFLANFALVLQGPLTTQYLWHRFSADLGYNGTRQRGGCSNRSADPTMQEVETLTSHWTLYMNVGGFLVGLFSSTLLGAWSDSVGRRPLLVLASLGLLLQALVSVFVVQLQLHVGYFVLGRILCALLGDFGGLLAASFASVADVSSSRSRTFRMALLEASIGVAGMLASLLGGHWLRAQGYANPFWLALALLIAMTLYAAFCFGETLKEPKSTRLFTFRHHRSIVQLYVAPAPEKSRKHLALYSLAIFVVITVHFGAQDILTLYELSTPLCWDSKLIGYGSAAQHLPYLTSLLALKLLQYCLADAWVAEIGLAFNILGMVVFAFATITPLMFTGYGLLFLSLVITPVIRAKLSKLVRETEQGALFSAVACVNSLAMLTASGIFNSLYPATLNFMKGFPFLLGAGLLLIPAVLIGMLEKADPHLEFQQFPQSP
Procedure: The affinity for PCFT of PLX was assessed in competition with 2.5 μM ^3H-l-LV at pH 5.5 in CHO-cells lacking RFC and transfected with PCFT. […] […] Also for PCFT relative affinities were expressed as the concentration of unlabeled drug necessary to inhibit [^3H]-LV influx.

FRα = target: T3, FRα (Homo sapiens, UniProt P15328); experiment: Intact cell binding assay, displacement of radio-active folic acid from KB cells; conditions: inverse ratio of compound to displace 50% of radio-active folic acid, folic acid set at 1
T3 construct: endogenous in cells; host or cells: KB cells
T3 sequence (P15328 25-257): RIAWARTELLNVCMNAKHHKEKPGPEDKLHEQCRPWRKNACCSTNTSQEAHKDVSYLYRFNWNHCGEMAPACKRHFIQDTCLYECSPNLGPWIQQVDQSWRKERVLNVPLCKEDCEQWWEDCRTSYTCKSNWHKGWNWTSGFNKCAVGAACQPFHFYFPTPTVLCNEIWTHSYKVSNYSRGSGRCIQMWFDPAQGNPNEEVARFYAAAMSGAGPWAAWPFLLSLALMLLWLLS
Procedure: (§1) In order to determine to which extent PLX was a substrate for either the folate receptors, RFC or PCFT we used competition experiments in cell lines overexpressing either transporter ([Westerhof et al., 1995a], [b]; [Jansen et al., 1997]; [Ifergan et al., 2008]; [Lasry et al., 2008]; [van der Heijden et al., 2009]). For FRα and FRβ, we used an intact cell binding assay for competitive binding with KB cells and CHO-FRβ cells, respectively. […] For RFC we used a competition assay with 5 μM [^3H]-l-LV in CCRF-CEM/7A cells (RFC+++) for 2 min at 37°C. CEM-7A cells overexpress the RFC 30-fold over wild-type CCRF-CEM cells ([Jansen et al., 1990], [1997]).

FRβ = target: T4, FRβ (Homo sapiens, UniProt P14207); experiment: Intact cell binding assay, displacement of radio-active folic acid from CHO-FRβ cells; conditions: folic acid set at 1
T4 construct: expressed in transfected cells; host or cells: CHO-FRβ cells
T4 sequence (P14207 17-255, species assumed): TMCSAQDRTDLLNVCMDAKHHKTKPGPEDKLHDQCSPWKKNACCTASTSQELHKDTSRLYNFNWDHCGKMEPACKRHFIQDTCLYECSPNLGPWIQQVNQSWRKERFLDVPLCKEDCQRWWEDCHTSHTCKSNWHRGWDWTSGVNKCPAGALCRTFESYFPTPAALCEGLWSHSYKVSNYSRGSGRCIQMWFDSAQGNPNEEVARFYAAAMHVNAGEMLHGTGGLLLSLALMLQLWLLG
Procedure: as §1

CCRF-CEM = experiment: Cell growth inhibition (MTT), CCRF-CEM; assay type: cell-based, human
Procedure: (§2) Cells were treated immediately with a drug dilution series in cell culture medium (75 μL/well). After an incubation period of approximately 72 h, growth in the 96-wells plates was assessed by adding 15 μL MTT solution (stock solution 5 mg/ml in PBS, final concentration 0.5 mg/ml in culture medium) to each well. After incubation for 3 h in the 5% CO2 incubator with 100% humidity at 37°C, 150 μL acidified 2-propanol was added to the plates to dissolve the formazan crystals. The yellow-colored MTT stock solution is taken up and reduced to a purple formazan in living cells, which directly correlates to the amount of viable cells. As final step, the plates were measured at 540 (or 492) nm by the SPECTRAfluor spectrophotometer.

HT cells [1] = experiment: Cell growth inhibition (cell counting) and median-drug effect analysis, HT; assay type: cell-based; conditions: for IC50: HT
SUDHL-4 cells [2] = experiment: Cell growth inhibition (cell counting) and median-drug effect analysis, SUDHL-4; assay type: cell-based; conditions: Homo sapiens, SU-DHL-4, read-out: IC50 (50% growth inhibition); SUDHL 4, 72 h exposure
SUDHL-5 cells = experiment: Cell growth inhibition (MTT) and median-drug effect analysis, SUDHL-5; assay type: cell-based
Procedure: as §2
Drug interaction in combination experiments was evaluated using the median-drug effect analysis using CalcuSyn software ([Bijnsdorp et al., 2011]). In order to evaluate combination indexes [CI] from different experiments, the CI values at Fraction Affected (FA) values >0.5 (preferably around 0.5, 0.75, and 0.9) were averaged for each specific experiment. The means of the separate experiments were subsequently averaged so that a mean ± Standard Error of the Mean (SEM) was calculated from three or more separate experiments. […] Drug combinations were designed based on the standard CalcuSyn approach in which a series of drug concentrations were combined in a fixed molar ratio, based on the IC50 of each drug. A variation of this approach was a sequential scheduling in which cells were exposed for 72 h to BLS, while in the combination PLX was added after 24 h and cells were exposed from 24 to 72 h. In the non-fixed ratio approach one drug was used at the IC25 (concentration that results in 25% growth inhibition) and the other drug was added in a concentration range.

Jeko-1 = experiment: Cell growth inhibition (MTT) and median-drug effect analysis, Jeko-1; assay type: cell-based; conditions: Homo sapiens, read-out: IC50 (50% growth inhibition); Jeko-1, 72 h exposure
Procedure: Cells were plated in 96-wells flat bottom plates, at 3,000 or 6,000 cells per well in culture medium (75 μL/well) or in 24-wells plates (60,000 cells/well) for the counting assays for which a Coulter Counter was used. Cells were treated immediately with a drug dilution series in cell culture medium (75 μL/well). […] After incubation for 3 h in the 5% CO2 incubator with 100% humidity at 37°C, 150 μL acidified 2-propanol was added to the plates to dissolve the formazan crystals. The yellow-colored MTT stock solution is taken up and reduced to a purple formazan in living cells, which directly correlates to the amount of viable cells. As final step, the plates were measured at 540 (or 492) nm by the SPECTRAfluor spectrophotometer. […] Drug interaction in combination experiments was evaluated using the median-drug effect analysis using CalcuSyn software ([Bijnsdorp et al., 2011]). […] The means of the separate experiments were subsequently averaged so that a mean ± Standard Error of the Mean (SEM) was calculated from three or more separate experiments. […] Drug combinations were designed based on the standard CalcuSyn approach in which a series of drug concentrations were combined in a fixed molar ratio, based on the IC50 of each drug. […]

Karpas-299 = experiment: Cell growth inhibition (MTT) and median-drug effect analysis, Karpas-299; assay type: cell-based; conditions: Homo sapiens, read-out: IC50 (50% growth inhibition); Karpas-299, 72 h exposure
Procedure: as §2
(§3) Drug interaction in combination experiments was evaluated using the median-drug effect analysis using CalcuSyn software ([Bijnsdorp et al., 2011]). In order to evaluate combination indexes [CI] from different experiments, the CI values at Fraction Affected (FA) values >0.5 (preferably around 0.5, 0.75, and 0.9) were averaged for each specific experiment. The means of the separate experiments were subsequently averaged so that a mean ± Standard Error of the Mean (SEM) was calculated from three or more separate experiments. […]

Hut-29 = experiment: Cell growth inhibition (MTT) and median-drug effect analysis, Hut-29; assay type: cell-based; conditions: read-out: IC50 (50% growth inhibition); Hut-29, 72 h exposure
Procedure: as §2, §3

lymphoma cell lines = experiment: Cell growth inhibition and median-drug effect analysis, panel of lymphoma cell lines; assay type: cell-based; conditions: 72 hr exposure, panel of cell lines; read-out: IC50, range over the cell lines
Procedure: Cells were plated in 96-wells flat bottom plates, at 3,000 or 6,000 cells per well in culture medium (75 μL/well) or in 24-wells plates (60,000 cells/well) for the counting assays for which a Coulter Counter was used. Cells were treated immediately with a drug dilution series in cell culture medium (75 μL/well). […] After incubation for 3 h in the 5% CO2 incubator with 100% humidity at 37°C, 150 μL acidified 2-propanol was added to the plates to dissolve the formazan crystals. The yellow-colored MTT stock solution is taken up and reduced to a purple formazan in living cells, which directly correlates to the amount of viable cells. As final step, the plates were measured at 540 (or 492) nm by the SPECTRAfluor spectrophotometer. […] Drug interaction in combination experiments was evaluated using the median-drug effect analysis using CalcuSyn software ([Bijnsdorp et al., 2011]). […] The means of the separate experiments were subsequently averaged so that a mean ± Standard Error of the Mean (SEM) was calculated from three or more separate experiments. […] Drug combinations were designed based on the standard CalcuSyn approach in which a series of drug concentrations were combined in a fixed molar ratio, based on the IC50 of each drug. A variation of this approach was a sequential scheduling in which cells were exposed for 72 h to BLS, while in the combination PLX was added after 24 h and cells were exposed from 24 to 72 h.

HT cells [3] = experiment: FACS propidium iodide staining: cell cycle distribution and cell death, HT; assay type: cell-based; conditions: drugs at their IC50, untreated 3.5%
Procedure: (§4) Propidium iodide staining (DNA staining) was used to determine cell cycle distribution and the extent of cell death. Cells (120,000 per well in a 24-wells plate) were exposed to PLX or BLS or the combination for 24, 48, or 72 h. Cells were harvested, suspended in 1.0 ml phosphate buffered saline/1% Bovine serum albumin and fixed with 70% ethanol. After centrifugation the pellet was resuspended in hypotonic propidium iodide (0.1 mg/ml), Triton-X-100 (0.1%), sodium citrate (1 mg/ml) and RNAse A (0.5 mg/ml) (final concentrations in saline) and stored in dark on ice for 30 min ([De Wilt et al., 2012]). DNA content of the cells to determine cell cycle effects and cell kill was analyzed by a FACScalibur (Becton Dickinson Immunocytometry Systems, San Jose, CA, United States) with an acquisition of 10,000 events as described previously ([De Wilt et al., 2012]).

SUDHL-4 cells [4] = experiment: FACS propidium iodide staining: cell death, SUDHL-4; assay type: cell-based; conditions: drugs at their IC50, untreated 5.0%
Procedure: as §4

cell proliferation = test system: cell proliferation; set-up: method as in Tonner et al., 2006; conditions: ref Tonner et al., 2006; cited from earlier work

C#CCC(Cc1cnc2nc(N)nc(N)c2n1)c1ccc(C(=O)N[C@@H](CCC(=O)O)C(=O)O)cc1 (stereo partly shown) [PLX, Pralatrexate]
RFC substrate affinity, fold better compared to methotrexate (RFC): 6 fold | RFC substrate affinity, fold better than levoleucovorin (l-LV) (RFC): 2 fold | IC50 (RFC; 5 μM [3H]-l-LV, 2 min, 37°C, CCRF-CEM/7A cells, read-out: RFC: concentration of unlabeled drug necessary to inhibit [3H]-l-LV uptake by 50%): 2800 ± 100 nM | IC50 (PCFT; 2.5 μM [3H]-l-LV, pH 5.5, 3 min, 37°C, read-out: PCFT: concentration of unlabeled drug necessary to inhibit [3H]-LV influx): 15000 nM and 14800 nM | substrate for PCFT at physiological pH (PCFT; pH 7.4): very poor substrate | FR-α relative affinity (FRα): 0.0035 and 0.0035 ± 0.0005 | FRβ relative affinity (FRβ): < 0.001 | reversal of cytotoxicity by l-LV (CCRF-CEM; 5 μM l-LV, CEM cells): 2965 fold | IC50 (CCRF-CEM; Homo sapiens, read-out: IC50 (50% growth inhibition), CCRF-CEM, 72 h exposure): 2.6 ± 0.4 nM | IC25 (concentration that results in 25% growth inhibition) (HT cells [1]; HT cells, 72 h): ~5 nM | IC50 (HT cells [1]; Homo sapiens, 72 h, read-out: IC50 (50% growth inhibition), HT, 72 h exposure): ~10 nM | IC50 (HT cells [1]; read-out: IC50 (50% growth inhibition), 72 h exposure): 7.4 ± 0.5 nM | IC50 (SUDHL-4 cells [2]): 5.6 ± 0.4 nM | IC50 (SUDHL-5 cells; Homo sapiens, SU-DHL-5, read-out: IC50 (50% growth inhibition), SUDHL 5, 72 h exposure): 5.5 ± 0.9 nM | IC25 (concentration that results in 25% growth inhibition) (SUDHL-5 cells; SUDHL-5 cells, 72 h): ~4 nM | IC50 (Jeko-1): 18.7 ± 4.2 nM | IC50 (Karpas-299): 24.7 ± 5.3 nM | IC50 (Hut-29): 2.8 ± 0.5 nM | IC50 (lymphoma cell lines): 2.8 to 20 nM | accumulation of cells in the sub-G1 phase (cell death) (HT cells [3]): 13% | accumulation of cells in the sub-G1 phase (cell death) (SUDHL-4 cells [4]): 22.1% | potency in suppressing cell proliferation relative to methotrexate (cell proliferation): one log more potent
